ChEMBL document CHEMBL1201862, “PubChem BioAssay data set” (2004)
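Briefly, cells in 96-well plates were exposed to five compound concentrations for 48 h, and endpoints were estimated by linear interpolation. Here, GI50 denotes the concentration required for 50% inhibition of growth.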 Activity calls are given as the source filed them. Rule as the data show it: active = GI50 up to about 1.1 µM and inactive = higher.

Assays:
Test in all cases: DTP human tumour cell line panel, 48 h
786-0 = test system: 786-0
A498 = test system: A498
A549 = test system: A549
ACHN = test system: ACHN
BT-549 = test system: BT-549
CAKI-1 = test system: CAKI-1
CCRF-CEM = test system: CCRF-CEM
COLO 205 = test system: COLO 205
DU-145 = test system: DU-145
EKVX = test system: EKVX
HCC 2998 = test system: HCC 2998
HCT-116 = test system: HCT-116
HCT-15 = test system: HCT-15
HOP-62 = test system: HOP-62
HOP-92 = test system: HOP-92
HT-29 = test system: HT-29
Hs-578T = test system: Hs-578T
IGROV-1 = test system: IGROV-1
K562 = test system: K562
KM12 = test system: KM12
LOX IMVI = test system: LOX IMVI
M14 = test system: M14
MCF7 = test system: MCF7
MDA-MB-231 = test system: MDA-MB-231
MDA-MB-435 = test system: MDA-MB-435
MDA-N = test system: MDA-N
MOLT-4 = test system: MOLT-4
Malme-3M = test system: Malme-3M
NCI-H226 = test system: NCI-H226
NCI-H23 = test system: NCI-H23
NCI-H460 = test system: NCI-H460
NCI-H522 = test system: NCI-H522
NCI/ADR-RES = test system: NCI/ADR-RES
OVCAR-3 = test system: OVCAR-3
OVCAR-4 = test system: OVCAR-4
OVCAR-5 = test system: OVCAR-5
OVCAR-8 = test system: OVCAR-8
PC-3 = test system: PC-3
RPMI-8226 = test system: RPMI-8226
RXF 393 = test system: RXF 393
SF-268 = test system: SF-268
SF-295 = test system: SF-295
SF-539 = test system: SF-539
SK-MEL-28 = test system: SK-MEL-28
SK-MEL-2 = test system: SK-MEL-2
SK-MEL-5 = test system: SK-MEL-5
SN12C = test system: SN12C
SNB-19 = test system: SNB-19
SNB-75 = test system: SNB-75
SR = test system: SR
SW-620 = test system: SW-620
TK-10 = test system: TK-10
U-251 = test system: U-251
UACC-257 = test system: UACC-257
UACC-62 = test system: UACC-62
UO-31 = test system: UO-31
HL-60 = test system: HL-60
SK-OV-3 = test system: SK-OV-3
T47D = test system: T47D

`O=C1c2cc3ncsc3cc2C(=O)c2c(O)ccc(O)c21` was tested, and the GI50 (786-0) was > 100 µM (inactive), the GI50 (A498) was > 100 µM (inactive) and the GI50 (A549) was > 100 µM (inactive). For the same compound, the GI50 (ACHN) was > 100 µM (inactive), the GI50 (BT-549) was > 100 µM (inactive) and the GI50 (CAKI-1) was > 100 µM (inactive). For the same compound, the GI50 (CCRF-CEM) was 98.9 µM (inactive), the GI50 (COLO 205) was > 100 µM (inactive) and the GI50 (DU-145) was > 100 µM (inactive). The GI50 (EKVX) was > 100 µM (inactive), the GI50 (HCC 2998) was > 100 µM (inactive) and the GI50 (HCT-116) was > 100 µM (inactive). The GI50 (HCT-15) was greater than 100 µM, the GI50 (HOP-62) was > 100 µM (inactive) and the GI50 (HOP-92) was > 100 µM (inactive). For the same compound, the GI50 (HT-29) was > 100 µM (inactive), the GI50 (Hs-578T) was > 100 µM (inactive) and the GI50 (IGROV-1) was > 100 µM (inactive). The GI50 (K562) was > 100 µM (inactive), the GI50 (KM12) was > 100 µM (inactive) and the GI50 (LOX IMVI) was > 100 µM (inactive). For the same compound, the GI50 (M14) was > 100 µM (inactive), the GI50 (MCF7) was > 100 µM (inactive) and the GI50 (MDA-MB-231) was > 100 µM (inactive). The GI50 (MDA-MB-435) was > 100 µM (inactive), the GI50 (MDA-N) was > 100 µM (inactive) and the GI50 (MOLT-4) was > 100 µM (inactive). The GI50 (Malme-3M) was > 100 µM (inactive), the GI50 (NCI-H226) was > 100 µM (inactive) and the GI50 (NCI-H23) was > 100 µM (inactive). For the same compound, the GI50 (NCI-H460) was > 100 µM (inactive), the GI50 (NCI-H522) was > 100 µM (inactive) and the GI50 (NCI/ADR-RES) was > 100 µM (inactive). For the same compound, the GI50 (OVCAR-3) was > 100 µM (inactive), the GI50 (OVCAR-4) was > 100 µM (inactive) and the GI50 (OVCAR-5) was > 100 µM (inactive). For the same compound, the GI50 (OVCAR-8) was > 100 µM (inactive), the GI50 (PC-3) was > 100 µM (inactive) and the GI50 (RPMI-8226) was > 100 µM (inactive). For the same compound, the GI50 (RXF 393) was > 100 µM (inactive), the GI50 (SF-268) was > 100 µM (inactive) and the GI50 (SF-295) was > 100 µM (inactive). For the same compound, the GI50 (SF-539) was > 100 µM (inactive), the GI50 (SK-MEL-28) was > 100 µM (inactive) and the GI50 (SK-MEL-2) was > 100 µM (inactive). For the same compound, the GI50 (SK-MEL-5) was > 100 µM (inactive), the GI50 (SN12C) was > 100 µM (inactive) and the GI50 (SNB-19) was > 100 µM (inactive). For the same compound, the GI50 (SNB-75) was > 100 µM (inactive), the GI50 (SR) was > 100 µM (inactive) and the GI50 (SW-620) was > 100 µM (inactive). The GI50 (TK-10) was > 100 µM (inactive), the GI50 (U-251) was > 100 µM (inactive) and the GI50 (UACC-257) was > 100 µM (inactive). The GI50 (UACC-62) was > 100 µM (inactive) and the GI50 (UO-31) was > 100 µM (inactive).

For `C=CCN1CN(c2ccccc2)C2(CCN(CCCC3(c4ccc(F)cc4)OCCO3)CC2)C1=O`, the GI50 (786-0) was 17.7 µM (inactive), the GI50 (A549) was 21.2 µM (inactive) and the GI50 (ACHN) was 18.7 µM (inactive). The GI50 (CAKI-1) was 26.7 µM (inactive), the GI50 (CCRF-CEM) was 13.3 µM (inactive) and the GI50 (COLO 205) was 15.3 µM (inactive). For the same compound, the GI50 (DU-145) was 22.4 µM (inactive), the GI50 (EKVX) was 15.1 µM (inactive) and the GI50 (HCC 2998) was 19.7 µM (inactive). The GI50 (HCT-116) was 14.8 µM (inactive), the GI50 (HCT-15) was 12.5 µM and the GI50 (HL-60) was 13.7 µM (inactive). For the same compound, the GI50 (HOP-62) was 21.1 µM (inactive), the GI50 (HT-29) was 5.61 µM (inactive) and the GI50 (IGROV-1) was 19.9 µM (inactive). The GI50 (K562) was 12.8 µM (inactive), the GI50 (KM12) was 15.8 µM (inactive) and the GI50 (LOX IMVI) was 18.5 µM (inactive). For the same compound, the GI50 (M14) was 15.5 µM (inactive), the GI50 (MCF7) was 14.7 µM (inactive) and the GI50 (MDA-MB-231) was 18.3 µM (inactive). For the same compound, the GI50 (MOLT-4) was 11 µM (inactive), the GI50 (Malme-3M) was 16.5 µM (inactive) and the GI50 (NCI-H226) was 19.5 µM (inactive). For the same compound, the GI50 (NCI-H23) was 13.5 µM (inactive), the GI50 (NCI-H522) was 18.9 µM (inactive) and the GI50 (NCI/ADR-RES) was 14.4 µM (inactive). The GI50 (OVCAR-3) was 14.4 µM (inactive), the GI50 (OVCAR-5) was 11.3 µM (inactive) and the GI50 (OVCAR-8) was 16.1 µM (inactive). For the same compound, the GI50 (PC-3) was 16.2 µM (inactive), the GI50 (RPMI-8226) was 12.4 µM (inactive) and the GI50 (RXF 393) was 14.8 µM (inactive). The GI50 (SF-268) was 18.7 µM (inactive), the GI50 (SF-295) was 18.5 µM (inactive) and the GI50 (SF-539) was 10.9 µM (inactive). The GI50 (SK-MEL-28) was 16.9 µM (inactive), the GI50 (SK-MEL-5) was 15.1 µM (inactive) and the GI50 (SK-OV-3) was 19.6 µM (inactive). For the same compound, the GI50 (SN12C) was 17.7 µM (inactive), the GI50 (SNB-19) was 19.5 µM (inactive) and the GI50 (SNB-75) was 15.3 µM (inactive). For the same compound, the GI50 (SR) was 12.1 µM (inactive), the GI50 (SW-620) was 18.7 µM (inactive) and the GI50 (T47D) was 11.6 µM (inactive). The GI50 (TK-10) was 16.9 µM (inactive), the GI50 (U-251) was 15.3 µM (inactive) and the GI50 (UACC-257) was 18.3 µM (inactive). The GI50 (UACC-62) was 18.7 µM (inactive) and the GI50 (UO-31) was 9.93 µM (inactive).
